Source: patent publication US10285994B2, “Method of preventing or treating osteoporosis by neddylation inhibitor” (Chang Gung University, priority 2017, dated 2019)

Key:
RAW264.7 cells = assay: Osteoclast formation from RAW264.7 cells, TRAP staining; format: cell-based, mouse; settings: sRANKL-activated RAW264.7 cells, 7 days, FIG. 2A
Description: FIGS. 2A-2D are data collected from RAW264.7 cells respectively incubated in the medium containing sRANKL (50 ng/ml) and specified concentrations of MLN4924 for 7 days according to example 1.2 of the present disclosure. FIG. 2A: the photographs of TRAP staining depicting the differentiation of osteoclasts from RAW264.7 cells. FIG. 2B: after the differentiation of osteoclasts in Corning Osteo Surface, the cells were removed, and the resorbed areas for confirming osteoclast activity were analyzed by 1% toluidine blue staining. FIG. 2C: the culture medium is subject to Biovision Cathepsin K Activity Fluorometric Assay Kit for the analysis of cathepsin K activity. FIG. 2D: the effect of effective doses of MLN4924 on the viability of RAW264.7 cells is evaluated by MTT assay. Scale bar represents 100 μm. Data are expressed as mean±SD where *p<0.05.
RAW264.7 cells (murine monocytic/macrophage cell line) were cultured in Dulbecco's modified Eagle's medium high glucose (DMEM)(Gibco BRL, Gaithersburg, Md.) containing 10% fetal bovine serum (Gibco) and 1× GlutaMax (Gibco).
For in vitro osteoclast formation, the pre-osteoclasts and RAW264.7 cells were cultured in the medium containing 50 ng/ml sRANKL […] specified concentrations of MLN4924 for seven days. […]

cathepsin K = assay: Cathepsin K activity fluorometric assay, BMMs; format: cell-based, mouse; settings: FIG. 1C
Description: (§1) FIGS. 1A-1D are data collected from primary mouse bone marrow-derived macrophages (BMMs) respectively incubated in the medium containing the soluble recombinant RANKL (sRANKL, 50 ng/ml), macrophage colony-stimulating factor (M-CSF, 40 ng/ml) and specified concentrations of MLN4924 for 7 days according to example 1.1 of the present disclosure. FIG. 1A: the photographs of TRAP staining depicting the differentiation of osteoclasts from BMMs. FIG. 1B: after the differentiation of osteoclasts in Corning Osteo Surface (a synthetic 3-dimensional structure that mimics in vivo bone for in vitro bone cell assays), the cells were removed, and the resorbed areas for confirming osteoclast activity were analyzed by 1% toluidine blue staining. FIG. 1C: the culture medium is subject to Biovision Cathepsin K Activity Fluorometric Assay Kit for the analysis of cathepsin K activity. FIG. 1D: the effect of effective doses of MLN4924 on the viability of BMMs is evaluated by MTT assay. Scale bar represents 100 μm. Data are expressed as mean±SD where *p<0.05; **p<0.01.
The pre-osteoclasts and RAW264.7 cells were seeded into Corning Osteo Surface Assay 96-wells plate (Corning, Kennebunk, Me.). Twenty-four hours later, the cells were treated with sRANKL (50 ng/ml) and specified concentrations of MLN4924 for 7 days. […]

MC3T3-E1 cells = assay: Osteogenesis, Alizarin Red S stain of MC3T3-E1 cells; format: cell-based, mouse; settings: MC3T3-E1, osteoblast differentiation medium, 21 days, FIG. 4B
Description: FIGS. 4A-4B respectively depict the osteogenesis of mouse pre-osteoblast cell line MC3T3-E1 cells incubated in the differentiation medium containing specified concentrations of MLN4924 for 21 days according to example 3 of the present disclosure. FIG. 4A: the growth of MC3T3-E1 cells during osteogenesis is analyzed by crystal violet staining. FIG. 4B: the osteogenesis of MC3T3-E1 cells on day 21 is analyzed by measuring Alizarin Red S stain. Diff: osteoblast differentiation medium. MLN: MLN4924.
The mouse pre-osteoblast cell line MC3T3-E1 cells were cultured in osteoblast differentiation medium with or without MLN4924 for 21 days.

[1] = test system: primary mouse bone marrow-derived macrophages (BMMs); assay: Pit assay on Corning Osteo Surface, BMM-derived osteoclasts; format: cell-based; settings: M-CSF, sRANKL, 7 days, FIG. 1B
Description: as §1
The pre-osteoclasts and RAW264.7 cells were seeded into Corning Osteo Surface Assay 96-wells plate (Corning, Kennebunk, Me.). […]
The effect of MLN4924 on the activity of osteoclast was then confirmed by pit assay. […] The resorbing areas on bone matrix by osteoclasts were visualized by 1% toluidine blue staining and quantified by image software.

NS(=O)(=O)OC[C@@H]1C[C@@H](n2ccc3c(N[C@H]4CCc5ccccc54)ncnc32)C[C@@H]1O [MLN4924, (1S,2S,4R)-4-(4-((1S)-2,3-Dihydro-1H-inden-1-ylamino)-7H-pyrrolo(2,3-d)pyrimidin-7-yl)-2-hydroxycyclopentyl) methyl sulphamate]
differentiation of osteoclasts (TRAP staining) (RAW264.7 cells): significantly inhibited | basal activity of cathepsin K (cathepsin K; MLN4924 alone without sRANKL): did not affect the basal activity of cathepsin K in macrophages | activity of cathepsin K versus sRANKL group (cathepsin K; with sRANKL): significantly reduced the activity of cathepsin K | differentiation of osteoblasts (Alizarin Red S) (MC3T3-E1 cells): neither the survival of osteoblasts (FIG. 4A), nor the differentiation of osteoblasts (FIG. 4B) was affected | resorbing activity of osteoclasts (pit assay, toluidine blue) [1]: suppressed the resorbing activity of osteoclasts in a dose-dependent manner
